One molecule from US9561284B2, “Pharmaceutical composition containing a block copolymer bound to a boronic acid compound” (NANOCARRIER CO., LTD., priority 2011, dated 2017) can be followed below.

The series is described as follows: Drug efficacy test: body weight of the mice. The format is in vivo, male nude mice (Balb nu/nu). The protocol:
Human prostate cancer PC-3 cells were inoculated under the dorsal skin of male nude mice (Balb nu/nu, 5-week-old, CHARLES RIVER LABORATORIES JAPAN, INC.) at 3×10^6 cells per mouse. At the time when the tumor volume reached 90.7±4.5 mm^3 (mean±standard error (SE)) (on day 10 after the inoculation), the drug was administered into the tail vein. […] It should be noted that the dosage is the amount in terms of the drug for each of the groups. […] It should be noted that, when the dosage of the bortezomib aqueous solution was set to more than 1 mg/kg, toxicity due to the active pharmaceutical ingredient became remarkable and the amount of body weight loss reached a severe level (e.g., a loss of 20% or more).

As to `CC(C)C[C@H](NC(=O)[C@H](Cc1ccccc1)NC(=O)c1cnccn1)B(O)O` [Comparative Example 2, bortezomib], where the note is “dosage of more than 1 mg/kg, toxicity became remarkable”, the Body weight loss is ≥ 20%. Where the note is “tail vein, 1 mg/kg”, the “Relative body weight 7 days after administration vs administration date” value was “no significant difference in mouse body weight”.
